Experimental data from publication PMC11995724, “Antibiotic target discovery by integrated phenotypic and activity-based profiling of electrophilic fragments” (Cell chemical biology, 2025).
Counter-ions that a name gives are not always drawn.

Test: in vitro
Details: human, hek293t cells

Row | SMILES | viability at 48 h, 25 µM [%]
1 | CC(=O)c1ccc(NC(=O)CCl)cc1 [4-G07, N-(4-acetylphenyl)-2-chloroacetamide] | 0.0514
2 | O=C(CCl)NCc1ccccc1CS(=O)(=O)N1CCOCC1 [4-G08, 2-chloro-N-({2-[(morpholine-4-sulfonyl)methyl]phenyl}methyl)acetamide] | 0.79
3 | COc1cc(NC(=O)CCl)cc(OC)c1 [4-G09, 2-chloro-N-(3,5-dimethoxyphenyl)acetamide] | 8.6
4 | O=C(CCl)Nc1ccccc1C(=O)Nc1ccc(Cl)cc1 [4-G10, 2-(2-chloroacetamido)-N-(4-chlorophenyl)benzamide] | 0.0501
5 | COc1cc(OC)c(NC(=O)CCl)cc1Cl [4-G11, 2-chloro-N-(5-chloro-2,4-dimethoxyphenyl)acetamide] | 0.402
6 | CC(Cl)C(=O)Nc1ccc(C(C)(C)C)cc1 (centres unmarked) [4-G12, N-(4-tert-butylphenyl)-2-chloropropanamide] | 66.1
7 | O=C(CCl)N(Cc1ccccc1)c1ccccc1 [4-G13, N-benzyl-2-chloro-N-phenylacetamide] | 1.23
8 | CC(Cl)C(=O)Nc1ccccc1-c1ccccc1 (centres unmarked) [4-G14, N-{[1,1'-biphenyl]-2-yl}-2-chloropropanamide] | 69.4
9 | CCCSc1nsc(NC(=O)CCl)n1 [4-G15, 2-chloro-N-[3-(propylsulfanyl)-1,2,4-thiadiazol-5-yl]acetamide] | 17.4
10 | CC1CCN(C(=O)CCl)c2cc(Cl)ccc2S1 (centres unmarked) [4-G16, 2-chloro-1-(7-chloro-2-methyl-2,3,4,5-tetrahydro-1,5-benzothiazepin-5-yl)ethan-1-one] | 0.484
11 | Cc1cc(C)c(-c2csc(NC(=O)CCl)n2)cc1C [4-G17, 2-chloro-N-[4-(2,4,5-trimethylphenyl)-1,3-thiazol-2-yl]acetamide] | 0.339
12 | CC(Cl)C(=O)Nc1ccccc1[N+](=O)[O-] (centres unmarked) [4-G18, 2-chloro-N-(2-nitrophenyl)propanamide] | 103
13 | O=C(CCl)N(CC=Cc1ccccc1)c1ccc2c(c1)OCCO2 [4-G19, 2-chloro-N-(2,3-dihydro-1,4-benzodioxin-6-yl)-N-(3-phenylprop-2-en-1-yl)acetamide] | 0.292
14 | COc1ccc(C2=NN(C(=O)CCl)C(c3cccc(C)c3)C2)cc1 (centres unmarked) [4-G20, 2-chloro-1-[3-(4-methoxyphenyl)-5-(3-methylphenyl)-4,5-dihydro-1H-pyrazol-1-yl]ethan-1-one] | -0.0034
15 | O=C(CCl)NCCSc1ccccc1 [4-G21, 2-chloro-N-[2-(phenylsulfanyl)ethyl]acetamide] | 1.68
16 | CC(=O)Nc1ccc(C2=NN(C(=O)CCl)C(c3ccco3)C2)cc1 (centres unmarked) [4-G22, N-{4-[1-(2-chloroacetyl)-5-(furan-2-yl)-4,5-dihydro-1H-pyrazol-3-yl]phenyl}acetamide] | 0.156
17 | CC(C)Cc1ccc(C(C)NC(=O)CCl)cc1 (centres unmarked) [4-H03, 2-chloro-N-{1-[4-(2-methylpropyl)phenyl]ethyl}acetamide] | 0.63
18 | CN(c1ccccc1)S(=O)(=O)c1cccc(NC(=O)CCl)c1 [4-H04, 2-chloro-N-{3-[methyl(phenyl)sulfamoyl]phenyl}acetamide] | 0.751
19 | O=C(CCl)NCCC1=CCCCC1 [4-H05, 2-chloro-N-[2-(cyclohex-1-en-1-yl)ethyl]acetamide] | 20.9
20 | O=C(CCl)Nc1ccc(S(=O)(=O)N2CCCCC2)cc1 [4-H06, 2-chloro-N-[4-(piperidine-1-sulfonyl)phenyl]acetamide] | 0.963
21 | O=C(CCl)N(Cc1ccc(Cl)cc1)C12CC3CC(CC(C3)C1)C2 [4-H07, N-(adamantan-1-yl)-2-chloro-N-[(4-chlorophenyl)methyl]acetamide] | -0.34

Row | SMILES | viability at 48 h, 25 µM [%]
22 | O=C(CCl)Nc1nc2ccc([N+](=O)[O-])cc2s1 [4-H08, 2-chloro-N-(6-nitro-1,3-benzothiazol-2-yl)acetamide] | 0.244
23 | Cc1ccc(C)c(Sc2ccc(NC(=O)CCl)cc2)c1 [4-H09, 2-chloro-N-{4-[(2,5-dimethylphenyl)sulfanyl]phenyl}acetamide] | -0.157
24 | CSc1cccc(NC(=O)CCl)c1 [4-H10, 2-chloro-N-[3-(methylsulfanyl)phenyl]acetamide] | 1.13
25 | CC(Cl)C(=O)Nc1cc(C(C)(C)C)nn1-c1ccccc1 (centres unmarked) [4-H11, N-(3-tert-butyl-1-phenyl-1H-pyrazol-5-yl)-2-chloropropanamide] | 93
26 | COc1ccc(OC)c(-c2csc(NC(=O)CCl)n2)c1 [4-H12, 2-chloro-N-[4-(2,5-dimethoxyphenyl)-1,3-thiazol-2-yl]acetamide] | 1.27
27 | CC(Cl)C(=O)Nc1sc(-c2ccccc2)cc1C(N)=O (centres unmarked) [4-H13, 2-(2-chloropropanamido)-5-phenylthiophene-3-carboxamide] | 80.6
28 | O=C(CCl)N1CCN(CCOc2ccccc2)CC1 [4-H14, 2-chloro-1-[4-(2-phenoxyethyl)piperazin-1-yl]ethan-1-one hydrochloride] | 1.67
29 | Cc1cc(S(=O)(=O)N(C)C)cc(NC(=O)CCl)c1C [4-H15, 2-chloro-N-[5-(dimethylsulfamoyl)-2,3-dimethylphenyl]acetamide] | 1.33
30 | Cc1ccc(C(NC(=O)CCl)c2cccs2)cc1 (centres unmarked) [4-H16, 2-chloro-N-[(4-methylphenyl)(thiophen-2-yl)methyl]acetamide] | 0.348
31 | O=C(CCl)NCCSc1ccc(Cl)cc1 [4-H17, 2-chloro-N-{2-[(4-chlorophenyl)sulfanyl]ethyl}acetamide] | 0.813
32 | O=C(CCl)NCC1CN(Cc2ccccc2)CCO1 (centres unmarked) [4-H18, N-[(4-benzylmorpholin-2-yl)methyl]-2-chloroacetamide] | 87.2
33 | O=C(CCl)N1CCC(OCc2ccccc2)CC1 [4-H19, 1-[4-(benzyloxy)piperidin-1-yl]-2-chloroethan-1-one] | 0.757
34 | Cn1ccnc1C(NC(=O)CCl)c1ccccc1 (centres unmarked) [4-H20, 2-chloro-N-[(1-methyl-1H-imidazol-2-yl)(phenyl)methyl]acetamide] | 44.4
35 | Cc1ccc(CNC(=O)c2ccccc2NC(=O)CCl)cc1 [4-H21, 2-(2-chloroacetamido)-N-[(4-methylphenyl)methyl]benzamide] | 105
36 | O=C(CCl)NOCc1ccccc1 [4-H22, N-(benzyloxy)-2-chloroacetamide] | 63.3
37 | Cc1ccc(Sc2ccc(NC(=O)CCl)cc2)c(C)c1 [4-I03, 2-chloro-N-{4-[(2,4-dimethylphenyl)sulfanyl]phenyl}acetamide] | 0.0415
38 | COc1cc(NC(=O)C(C)Cl)cc(OC)c1 (centres unmarked) [4-I04, 2-chloro-N-(3,5-dimethoxyphenyl)propanamide] | 81.7
39 | CC(C)c1ccc(C(C)NC(=O)CCl)cc1 (centres unmarked) [4-I05, 2-chloro-N-{1-[4-(propan-2-yl)phenyl]ethyl}acetamide] | 1.47
40 | Cc1ccc(S(=O)(=O)N(C)C)cc1NC(=O)C(C)Cl (centres unmarked) [4-I06, 2-chloro-N-[5-(dimethylsulfamoyl)-2-methylphenyl]propanamide] | 69.7
41 | O=C(CCl)Nc1ccc(F)cc1[N+](=O)[O-] [4-I07, 2-chloro-N-(4-fluoro-2-nitrophenyl)acetamide] | 0.642
